The text below walks through data of patent US8304394B2, “Low side effect pharmaceutical composition containing isoniazid” (priority 2008, dated 2012).

What is called inhibition is the relative decrease from the control value, in per cent.

Read-outs that look alike come from different tables or passages of the source.

The target in series [1] is T1, cDNA expressed human cytochrome P450 2E1 (CYP2E1) (Homo sapiens, UniProt P05181).
Series [2] has as its target T1, cDNA expressed human cytochrome P450 2E1 (CYP2E1). To be noted: 40 min, pH 7.4.
The target of series [3] is T2, CYP2E1 (Homo sapiens, UniProt P05181). Put plainly: in vitro. To be noted: for inhibition at 40 min, 16.5 µM: tested concentration 16.5 μM.
The target of series [4] is T3, human liver microsomal cytochrome P450 2E1 (CYP2E1) (Homo sapiens, UniProt P05181). Put plainly: Chlorzoxazone hydroxylation inhibition (6-OH-CZX by LC/MS/MS).
Series [5] has as its target T3, human liver microsomal cytochrome P450 2E1 (CYP2E1). To be noted: microsomes, 33 µM.
In series [6] the target is T2, CYP2E1. Put plainly: Chlorzoxazone hydroxylation inhibition (6-OH-CZX by LC/MS/MS). To be noted: human, microsomes, pH 7.4.
The mark [7] stands for this setting: pH 7.4, Inhibition of CYP 2E1 (%).

T3 sequence (P05181 whole entry): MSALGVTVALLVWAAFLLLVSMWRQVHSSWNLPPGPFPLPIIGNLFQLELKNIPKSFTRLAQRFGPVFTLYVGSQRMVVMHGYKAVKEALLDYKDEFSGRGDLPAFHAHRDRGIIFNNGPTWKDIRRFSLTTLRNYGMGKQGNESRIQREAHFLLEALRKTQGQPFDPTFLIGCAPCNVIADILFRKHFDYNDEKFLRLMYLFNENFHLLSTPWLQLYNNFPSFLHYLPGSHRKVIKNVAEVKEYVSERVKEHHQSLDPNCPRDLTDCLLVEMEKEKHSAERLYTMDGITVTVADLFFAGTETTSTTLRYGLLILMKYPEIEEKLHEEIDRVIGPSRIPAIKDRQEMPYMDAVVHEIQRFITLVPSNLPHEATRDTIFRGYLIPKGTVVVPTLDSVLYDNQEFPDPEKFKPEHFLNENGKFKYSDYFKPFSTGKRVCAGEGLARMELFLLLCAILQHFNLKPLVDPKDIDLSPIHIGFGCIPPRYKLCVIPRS
T2 sequence (P05181 whole entry): as above
T1 sequence (P05181 whole entry): as above

`COc1c(O)cc(O)c2c(=O)cc(-c3ccccc3)oc12` [Wongonin]: the “Inhibition of CYP 2E1 (%)” value in series [1] (tested concentration 33 μM) amounted to 21.87 ± 1.90%.
In the case of `O=c1ccc2ccc(O)cc2o1` [Umbelliferone], the “Inhibition of CYP 2E1 (%)” value in series [2] (33 µM) is given as −571.97 ± 117.56%; in series [2] (66 µM) it was −1081.56 ± 168.00%. Also, the inhibition at 40 min, 16.5 µM against CYP2E1 [3] (setting [7]) was -280 ± 19.5%.
Turning to `Oc1cc(O)c2c(c1)O[C@H](c1ccc(O)c(O)c1)[C@H](O)C2` [(−)-Epicatechin], the “Inhibition of CYP 2E1 (%)” value in series [1] (tested concentration 16.5 μM) turned out to be 18.27 ± 9.34%; in series [1] (tested concentration 33 μM), 15.02 ± 5.50%; in series [1] (tested concentration 66 μM), 2.57 ± 11.60%.
In the case of `COc1c(O)cc2oc(Oc3ccc(O)cc3)cc(=O)c2c1O` [Capillarisin], the “Inhibition of CYP 2E1 (%)” value is on record as 32.89 ± 2.46% in series [4] (tested concentration 16.5 μM); 46.22 ± 2.65% in series [4] (tested concentration 33 μM); 57.31 ± 1.31% in series [4] (tested concentration 66 μM); 49.05 ± 5.18% in series [1] (tested concentration 16.5 μM); 60.54 ± 5.91% in series [1] (tested concentration 33 μM); 76.12 ± 1.89% in series [1] (tested concentration 66 μM).
As to `CCCCC[C@H](O)CC(=O)CCc1ccc(O)c(OC)c1` [6-Gingerol], in series [1] (tested concentration 33 μM), the “Inhibition of CYP 2E1 (%)” value was 39.83 ± 2.32%.
As to `CC(Cc1ccc(O)c(O)c1)C(C)Cc1ccc(O)c(O)c1` (centres unmarked) [Nordihydroguaiaretic acid], the “Inhibition of CYP 2E1 (%)” value in series [5] is listed as 67.68. ± 2.24%. Further, the inhibition at 40 min, 33 µM at CYP2E1 [3] (pH 7.4) came out at 92.4 ± 2.2%. Besides, the inhibition at 40 min, 16.5 µM at CYP2E1 [3] (setting [7]) stood at 76.5 ± 3.86%. Besides, the inhibition at 40 min, 66 µM against CYP2E1 [3] (pH 7.4, Inhibition of CYP 2E1 (%), tested concentration 66 μM) was determined as 97.99 ± 0.66%. In addition, at CYP2E1 [6], the inhibition at 30 min, 16.5 µM amounted to 49.8 ± 2.42% and the inhibition at 30 min, 66 µM is 96.98 ± 0.19%.
On to (−)-Epicatechin-3-gallate, for which the “Inhibition of CYP 2E1 (%)” value came to 30.31 ± 1.27% in series [4] (tested concentration 16.5 μM), 34.84 ± 1.72% in series [4] (tested concentration 33 μM) and 42.92 ± 0.65% in series [4] (tested concentration 66 μM).
Take `COc1ccc([C@@H]2CC(=O)c3c(O)cc(O[C@@H]4O[C@H](CO[C@@H]5O[C@@H](C)[C@H](O)[C@@H](O)[C@H]5O)[C@@H](O)[C@H](O)[C@H]4O)cc3O2)cc1O` [Hesperidin]: the “Inhibition of CYP 2E1 (%)” value stood at 45.32 ± 1.57% in series [4] (tested concentration 16.5 μM), 50.91 ± 2.81% in series [4] (tested concentration 33 μM) and 58.57 ± 3.78% in series [4] (tested concentration 66 μM).
For `Oc1cc(O)c2c(c1)O[C@H](c1cc(O)c(O)c(O)c1)[C@H](O)C2` [(−)-Epigallocatechin] the same measures were 38.95 ± 1.92%, 36.40 ± 2.18% and 57.08 ± 1.85%.
On to `O=c1cc(-c2ccccc2)oc2ccc3ccccc3c12` [β-naphthoflavone], for which the “Inhibition of CYP 2E1 (%)” value in series [1] (tested concentration 16.5 μM) was 6.52 ± 6.64%; in series [1] (tested concentration 33 μM), 16.83 ± 0.96%; in series [1] (tested concentration 66 μM) it was 15.40 ± 12.94%.
The corresponding values for `Oc1cc(O)c2c(c1)O[C@H](c1ccc(O)c(O)c1)[C@@H](O)C2` [(+)-Catechin] are 41.53 ± 7.62%, 33.83 ± 8.76% and 16.45 ± 9.67%.
